We go through 7 compounds from publication PMC8958506, “Site-Specific Isopeptide Bond Formation: A Powerful Tool for the Generation of Potent and Nontoxic Antimicrobial Peptides” (Journal of Medicinal Chemistry, 2022).

One series concerns S. aureus ATCC 6538P. Type of series: cell-based, Staphylococcus aureus. The following applies: ATCC 6538, 24 h. The method, then:
(§1) For our experiments, we used strains obtained from the American Type Culture Collection (ATCC), including P. aeruginosa PAO1, E. coli K12 parental type, S. aureus ATCC 6538P, and B. subtilis ATCC 6051. The MIC assays were performed as reported by Wiegand et al. using the broth microdilution method in 96-well round-bottom microplates.[35] The MIC was defined as the lowest concentration at which no bacterial growth was observed. Briefly, bacteria were inoculated into Mueller Hinton broth (MHB), cultured overnight at 37 °C, and transferred to a new MHB until the exponential phase of growth. The bacteria were diluted to 1 × 10^6 CFU/mL using MHB, and the peptides were prepared in double-distilled water (DDW) filtered over a 0.25 μm filter. To 50 μL of the MHB medium containing two fold serially diluted peptides with concentrations ranging from 1.56 to 50 μM were added 50 μL aliquots of the bacterial solution. The plates were incubated for 24 h at 37 °C. The positive and negative controls used were cultured without peptides (100% growth) and uninoculated MHB broth (0% growth). The bacterial growth inhibition was evaluated by measuring the absorbance at 600 nm using a microplate autoreader (SynersyMx, Biotek).

The next series has as its system B. subtilis ATCC 6051. Type of series: cell-based, Bacillus subtilis. The following applies: ATCC 6051, 24 h. The procedure:
as §1

The next series relates to P. aeruginosa PAO1. In kind it is cell-based, Pseudomonas aeruginosa. The following applies: PAO1, 24 h. The method, then:
as §1

For another series, the system named is trypsin. The following applies: trypsin 10 μg/mL, peptide 100 μM in PBS pH 7.4, after 30 min of incubation; RP-HPLC peak area relative to t0. The procedure: Proteolysis was measured by RP-HPLC using the following parameters, as reported.[33] Trypsin with a final concentration of 10 μg/mL was added to a solution of the peptides in PBS (pH 7.4) (100 μM). The reaction was monitored over time using reversed-phase HPLC (C18 reversed-phase Bio-Rad analytical column, 250 × 4 mm, 300 Å pore size, and 7 μm particle size). The column was eluted in 40 min using a linear gradient of 10–90% acetonitrile in water, both containing 0.1% trifluoroacetic acid (v/v), at a flow rate of 0.6 mL/min.

Values after ≈ are worked out from the molar mass of the structure shown. Starred links: 1 amine or outer side, 2 acyl side, 3 side chain; linkers in the order of their positions; H or OH if unused. Positions of bridges follow the written chain, without caps; N, C: chain ends. Non-standard residues stand in square brackets, D forms with d. Residues, ends and D or L forms follow the SMILES beside them. Groups on a side chain read outwards from the residue. Chains are numbered I, II in the order given. εLys = N[C@@H](CCCCN[*:1])C(=O)[*:2]

By MIC is commonly meant the smallest concentration in the dilution series that meets the test's criterion for growth inhibition. `CC(C)C[C@H](NC(=O)[C@H](CC(C)C)NC(=O)[C@H](CCCCN)NC(=O)[C@H](CC(C)C)NC(=O)[C@H](CC(C)C)NC(=O)[C@H](CCCCN)NC(=O)[C@H](CCCCN)NC(=O)[C@H](CC(C)C)NC(=O)[C@H](CC(C)C)NC(=O)[C@@H](N)CCCCNC(=O)[C@H](CCCCN)NC(=O)[C@H](CC(C)C)NC(=O)[C@H](CC(C)C)NC(=O)[C@H](CCCCN)NC(=O)[C@@H](N)CC(C)C)C(N)=O` [Amp1EP6] (I: H-KLLKKLLKLL-NH2 / II: H-LKLLK; amide I:1-II:C): the minimal inhibitory concentration (MIC) with S. aureus ATCC 6538P, against B. subtilis ATCC 6051 and against P. aeruginosa PAO1 was 1.56 µM (≈ 2.82 µg/mL) throughout.

With `CC(C)C[C@H](NC(=O)[C@H](CC(C)C)NC(=O)[C@H](CCCCN)NC(=O)[C@H](CC(C)C)NC(=O)[C@H](CC(C)C)NC(=O)[C@H](CCCCN)NC(=O)[C@H](CCCCN)NC(=O)[C@H](CC(C)C)NC(=O)[C@H](CC(C)C)NC(=O)[C@H](CCCCN)NC(=O)[C@H](CCCCN)NC(=O)[C@H](CC(C)C)NC(=O)[C@H](CC(C)C)NC(=O)[C@H](CCCCN)NC(=O)[C@@H](N)CC(C)C)C(N)=O` [Amp1L, reference compound] (H-LKLLKKLLKKLLKLL-NH2), the “peptide remaining intact with trypsin” value in the series with trypsin is “neither the parental peptide Amp1L nor any of the other modified peptides were detected”. Also, the minimal inhibitory concentration (MIC) in the series on S. aureus ATCC 6538P, against B. subtilis ATCC 6051 and against P. aeruginosa PAO1 was 12.5 µM (≈ 22.6 µg/mL) throughout.

For the compound `CC(C)C[C@H](NC(=O)[C@H](CC(C)C)NC(=O)[C@H](CCCCN)NC(=O)[C@H](CC(C)C)NC(=O)[C@H](CC(C)C)NC(=O)[C@H](CCCCN)NC(=O)[C@H](CCCCN)NC(=O)[C@H](CC(C)C)NC(=O)[C@H](CC(C)C)NC(=O)[C@H](CCCCN)NC(=O)[C@@H](N)CCCCNC(=O)[C@H](CC(C)C)NC(=O)[C@H](CC(C)C)NC(=O)[C@H](CCCCN)NC(=O)[C@@H](N)CC(C)C)C(N)=O` [Amp1EP5] (H-K([Leu-Leu-Lys-Leu])KLLKKLLKLL-NH2), the results for the MIC against S. aureus ATCC 6538P, in the series with B. subtilis ATCC 6051 and in the series on P. aeruginosa PAO1 were 3.12 µM (≈ 5.63 µg/mL), 1.56 µM (≈ 2.82 µg/mL) and 3.12 µM (≈ 5.63 µg/mL), respectively.

As for `CC(C)C[C@H](NC(=O)[C@H](CC(C)C)NC(=O)[C@H](CCCCN)NC(=O)[C@H](CC(C)C)NC(=O)[C@H](CC(C)C)NC(=O)[C@H](CCCCN)NC(=O)[C@H](CCCCN)NC(=O)[C@H](CC(C)C)NC(=O)[C@H](CC(C)C)NC(=O)[C@H](CCCCN)NC(=O)[C@H](CCCCN)NC(=O)[C@H](CC(C)C)NC(=O)[C@H](CC(C)C)NC(=O)[C@@H](N)CCCCNC(=O)[C@@H](N)CC(C)C)C(N)=O` [Amp1EP2] (H-K(Leu)LLKKLLKKLLKLL-NH2), the MIC against S. aureus ATCC 6538P, in the series with B. subtilis ATCC 6051 and against P. aeruginosa PAO1 was 1.56 µM (≈ 2.82 µg/mL) each time.

For the compound `CC(C)C[C@H](NC(=O)[C@H](CC(C)C)NC(=O)[C@H](CCCCN)NC(=O)[C@H](CC(C)C)NC(=O)[C@H](CC(C)C)NC(=O)[C@H](CCCCN)NC(=O)[C@@H](N)CCCCNC(=O)[C@H](CC(C)C)NC(=O)[C@H](CC(C)C)NC(=O)[C@H](CCCCN)NC(=O)[C@H](CCCCN)NC(=O)[C@H](CC(C)C)NC(=O)[C@H](CC(C)C)NC(=O)[C@H](CCCCN)NC(=O)[C@@H](N)CC(C)C)C(N)=O` [Amp1EP9] (H-LKLLKKLL[εLys]KLLKLL-NH2), the “peptide remaining intact with trypsin” value in the series with trypsin was 40%. The MIC in the series with S. aureus ATCC 6538P was determined as 6.25 µM (≈ 11.3 µg/mL); against B. subtilis ATCC 6051, 3.12 µM (≈ 5.63 µg/mL); against P. aeruginosa PAO1, 3.12 µM (≈ 5.63 µg/mL).

In the case of `CC(C)C[C@H](NC(=O)[C@H](CC(C)C)NC(=O)[C@@H](N)CCCCNC(=O)[C@H](CC(C)C)NC(=O)[C@H](CC(C)C)NC(=O)[C@H](CCCCN)NC(=O)[C@H](CCCCN)NC(=O)[C@H](CC(C)C)NC(=O)[C@H](CC(C)C)NC(=O)[C@H](CCCCN)NC(=O)[C@H](CCCCN)NC(=O)[C@H](CC(C)C)NC(=O)[C@H](CC(C)C)NC(=O)[C@H](CCCCN)NC(=O)[C@@H](N)CC(C)C)C(N)=O` [Amp1EP13] (H-LKLLKKLLKKLL[εLys]LL-NH2), the MIC against S. aureus ATCC 6538P, against B. subtilis ATCC 6051 and with P. aeruginosa PAO1 was 1.56 µM (≈ 2.82 µg/mL) in each case.

With `CC(C)C[C@H](NC(=O)[C@H](CC(C)C)NC(=O)[C@H](CCCCN)NC(=O)[C@H](CC(C)C)NC(=O)[C@H](CC(C)C)NC(=O)[C@@H](N)CCCCNC(=O)[C@H](CCCCN)NC(=O)[C@H](CC(C)C)NC(=O)[C@H](CC(C)C)NC(=O)[C@H](CCCCN)NC(=O)[C@H](CCCCN)NC(=O)[C@H](CC(C)C)NC(=O)[C@H](CC(C)C)NC(=O)[C@H](CCCCN)NC(=O)[C@@H](N)CC(C)C)C(N)=O` [Amp1EP10] (H-LKLLKKLLK[εLys]LLKLL-NH2), the MIC against S. aureus ATCC 6538P, in the series on B. subtilis ATCC 6051 and with P. aeruginosa PAO1 was 3.12 µM (≈ 5.63 µg/mL) throughout.
